Type in all cases: cell-based, porcine
The test system of experiment [1] is PAE/VEGFR-3 cells. The experiment can be described thus: Cell shape assay, PAE/VEGFR-3 cells with VEGF-C. The following applies: VEGF-C induced cell morphology, tested at 10, 50 and 100 μM, No effect = no morphological changes up to 100 μM; for minimal effective concentration: Sus scrofa, read-out: Cell Shape: PAE/VEGFR-3 with VEGF antagonist conc. (μM) that gives inhibition. The method, then: (§1) One of the used assays comprised a culture of PAE/VEGFR-2 and PAE/VEGFR3 cells. Morphological changes of the cells were recorded microscopically after addition of VEGF-A and VEGF-C respectively, followed by the test compound at a final concentration up to 100 μM. Growth inhibitions of the PAE/VEGFR-2 cells were detected in the presence of the compound of Example 1 according to the invention at 10 μM or lower. Furthermore, the inventive compounds were tested in PAE/VEGFR-3 cells and morphological changes of the cells were recorded microscopically after addition of the VEGF-C, followed by the test compound at a final concentration up to 100 μM. Growth inhibitions of the PAE/VEGFR-3 cells were detected in the presence of several of Examples according to the invention. The compounds were tested at 10, 50 and 100 μM. The effect of the test compounds in Table 1 is expressed as concentration of compound that inhibits the cell morphology induced by VEGF A and VEGF C. No effect means that no morphological changes were seen up to 100 μM compound concentrations.
(§2) In Table 1, data from both the cell shape assay and the chemotaxis assay are shown. Thus, under “Cell Shape: PAE/VEGFR-2 with VEGF antagonist conc. (μM)” and “Cell Shape: PAE/VEGFR-3 with VEGF antagonist conc. (μM)” the concentration of the indicated inventive compound that gave restitution of cell morphology in the cell shape assay is shown. Data under “Chemotaxis: VEGFR-2% inhibition of cell migration” and “Chemotaxis: VEGFR-3% inhibition of cell migration” show the percentage inhibition of PAE cells expressing VEGFR-2 or 3 in the presence of 10 μM of the indicated inventive compound.

Experiment [2] concerns PAE/VEGFR-2 cells. Put plainly: Cell shape assay, PAE/VEGFR-2 cells with VEGF-A. As to conditions: VEGF-A induced cell morphology; tested at 10, 50 and 100 μM; No effect = no morphological changes up to 100 μM. The method, then:
as §1, §2

Experiment [3] relates to PAE cells expressing VEGFR3. The experiment can be described thus: Chemotaxis assay (modified Boyden chamber), PAE/VEGFR-3 toward VEGF-C. As to conditions: Sus scrofa, 10 μM compound, VEGF-C as chemo-attractant, absence of serum, read-out: Chemotaxis: VEGFR-3 inhibition of cell migration (%) at 10 μM compound concentration. The method, then: (§3) Additionally, the effect of the compounds was tested in this capacity of influencing chemotaxis. The test compounds were tested in porcine aorta endothelial (PAE) cells expressing VEGFR2 and VEGFR3 (PAE/VEGFR-2 and PAE/VEGFR-3). The method used is a modified Boyden chamber assay. The migration of the PAE cells expressing VEGFR2 and VEGFR3 receptors toward VEGF-A and VEGF-C respectively used as chemo-attractant was studied through micropore polycarbonate filter and was scored in the absence of serum. The assay was performed in the presence of compounds at 10 μM.
as §2

Experiment [4] deals with PAE cells expressing VEGFR2. The experiment can be described thus: Chemotaxis assay (modified Boyden chamber), PAE/VEGFR-2 toward VEGF-A. The following applies: VEGF-A as chemo-attractant, absence of serum; for inhibition at 10 µM: Sus scrofa, PAE, 10 μM compound, read-out: Chemotaxis: VEGFR-2 inhibition of cell migration (%) at 10 μM compound concentration. The method, then: as §3, §2

As to `CNC(=O)c1ccc2ncc(C(=O)OCN(C)C(=O)OC)c(Nc3ccc(OC)cc3)c2c1` [Example 2, (Methoxycarbonyl(methyl)amino)methyl 4-(4-methoxyphenylamino)-6-(methylcarbamoyl)quinoline-3-carboxylate], the “Cell Shape: PAE/VEGFR-3 with VEGF antagonist conc. (μM) that gives inhibition” value in experiment [1] was “No effect”. Also, the “Cell Shape: PAE/VEGFR-2 with VEGF antagonist conc. (μM) that gives inhibition” value in experiment [2] was “No effect”. The figures for the inhibition at 10 µM in experiment [3] and in experiment [4] were 45% and 39%, respectively.
Regarding `CNC(=O)c1ccc2ncc(C(=O)OCN(C)C(=O)c3ccccc3)c(Nc3ccc(OC)cc3)c2c1` [Example 3, (N-methylbenzamido)methyl 4-(4-methoxyphenylamino)-6-(methylcarbamoyl)-quinoline-3-carboxylate], the “Cell Shape: PAE/VEGFR-3 with VEGF antagonist conc. (μM) that gives inhibition” value in experiment [1] was “No effect”. The “Cell Shape: PAE/VEGFR-2 with VEGF antagonist conc. (μM) that gives inhibition” value in experiment [2] is listed as “No effect”. In addition, the inhibition at 10 µM worked out at 36% in experiment [3] and 28% in experiment [4].
For `CNC(=O)c1ccc2ncc(C(=O)OCCN(C)C)c(Nc3ccc(OC)cc3)c2c1` [Example 4, 2-(dimethylamino)ethyl 4-(4-methoxyphenylamino)-6-(methylcarbamoyl)-quinoline-3-carboxylate], the minimal effective concentration in experiment [1] stood at 100 µM. For the same compound, the “Cell Shape: PAE/VEGFR-2 with VEGF antagonist conc. (μM) that gives inhibition” value in experiment [2] is listed as “No effect”. Further, the inhibition at 10 µM came out at 63% in experiment [3] and 21% in experiment [4].
As for `CNC(=O)c1ccc2ncc(C(=O)OCC(=O)N(C)C)c(Nc3ccc(OC)cc3)c2c1` [Example 5, 2-(dimethylamino)-2-oxoethyl-4-(4-methoxyphenylamino)-6-(methyl-carbamoyl)quinoline-3-carboxylate], the minimal effective concentration in experiment [1] is 100 µM. Moreover, in experiment [2], the “Cell Shape: PAE/VEGFR-2 with VEGF antagonist conc. (μM) that gives inhibition” value was “No effect”. In addition, the figures for the inhibition at 10 µM in experiment [3] and in experiment [4] were 64% and 2%, respectively.
On the same counts, the results for `CNC(=O)c1ccc2ncc(C(=O)OC(C)C(=O)OC)c(Nc3ccc(OC)cc3)c2c1` (centres unmarked) [Example 6, (2-Methoxy-1-methyl-2-oxo-ethyl) 4-[(4-methoxyphenyl)amino]-6-(methylcarbamoyl)quinoline-3-carboxylate] are 50 µM, “No effect”, 69% and 23%.
Regarding `CNC(=O)c1ccc2ncc(C(=O)OCOC(C)=O)c(Nc3ccc(OC)cc3)c2c1` [Example 7, Acetoxymethyl 4-[(4-methoxyphenyl)amino]-6-(methylcarbamoyl)quinoline-3-carboxylate], the minimal effective concentration in experiment [1] was 50 µM. For the same compound, the “Cell Shape: PAE/VEGFR-2 with VEGF antagonist conc. (μM) that gives inhibition” value in experiment [2] is given as “No effect”. Moreover, the inhibition at 10 µM in experiment [3] was found to be 25%. Moreover, the “Chemotaxis: VEGFR-2 inhibition of cell migration (%) at 10 μM compound concentration” value in experiment [4] is recorded as “No effect”.
On to `CNC(=O)c1ccc2ncc(C(=O)OCN(c3ccccc3)S(C)(=O)=O)c(Nc3ccc(OC)cc3)c2c1` [Example 8, (Methylsulfonyl(phenyl)amino)methyl 4-[(4-methoxyphenyl)amino]-6-(methylcarbamoyl)quinoline-3-carboxylate], for which, in experiment [1], the minimal effective concentration is 100 µM. Besides, the “Cell Shape: PAE/VEGFR-2 with VEGF antagonist conc. (μM) that gives inhibition” value in experiment [2] is listed as “No effect”. For the same compound, the inhibition at 10 µM in experiment [3] worked out at 18%. Besides, the “Chemotaxis: VEGFR-2 inhibition of cell migration (%) at 10 μM compound concentration” value in experiment [4] is reported as “No effect”.
In the case of `CNC(=O)c1ccc2ncc(C(=O)OC(C)C(=O)O)c(Nc3ccc(OC)cc3)c2c1` (centres unmarked) [Example 9, 2-[4-[(4-Methoxyphenyl)amino]-6-(methylcarbamoyl)quinoline-3-carbonyl]oxypropanoic Acid], in experiment [1], the “Cell Shape: PAE/VEGFR-3 with VEGF antagonist conc. (μM) that gives inhibition” value is “No effect”. For the same compound, in experiment [2], the “Cell Shape: PAE/VEGFR-2 with VEGF antagonist conc. (μM) that gives inhibition” value is recorded as “No effect”. Also, the inhibition at 10 µM in experiment [3] was 52%; in experiment [4] it was 38%.
For `CNC(=O)c1ccc2ncc(C(=O)OCCn3ccnc3)c(Nc3ccc(OC)cc3)c2c1` [Example 10, 2-Imidazol-1-ylethyl 4-[(4-methoxyphenyl)amino]-6-(methylcarbamoyl)-quinoline-3-carboxylate], the minimal effective concentration in experiment [1] was found to be 10 µM. For the same compound, the “Cell Shape: PAE/VEGFR-2 with VEGF antagonist conc. (μM) that gives inhibition” value in experiment [2] is on record as “No effect”. Besides, the inhibition at 10 µM came out at 53% in experiment [3] and 32% in experiment [4].
As to `CNC(=O)c1ccc2ncc(C(=O)OCCN3CCOCC3)c(Nc3ccc(OC)cc3)c2c1` [Example 11, 2-Morpholinoethyl 4-[(4-methoxyphenyl)amino]-6-(methylcarbamoyl)-quinoline-3-carboxylate], the minimal effective concentration in experiment [1] amounted to 10 µM. In experiment [2], the “Cell Shape: PAE/VEGFR-2 with VEGF antagonist conc. (μM) that gives inhibition” value is “No effect”. Moreover, the results for the inhibition at 10 µM in experiment [3] and in experiment [4] were 83% and 10%, respectively.
On to `CNC(=O)c1ccc2ncc(C(=O)OCc3oc(=O)oc3C)c(Nc3ccc(OC)cc3)c2c1` [Example 12, (5-Methyl-2-oxo-1,3-dioxol-4-yl)methyl 4-[(4-methoxyphenyl)amino]-6-(methylcarbamoyl)quinoline-3-carboxylate], for which the minimal effective concentration in experiment [1] came out at 100 µM. Moreover, the “Cell Shape: PAE/VEGFR-2 with VEGF antagonist conc. (μM) that gives inhibition” value in experiment [2] was “No effect”. For the same compound, in experiment [3], the inhibition at 10 µM amounted to 46%. The “Chemotaxis: VEGFR-2 inhibition of cell migration (%) at 10 μM compound concentration” value in experiment [4] is on record as “No effect”.
Consider `CNC(=O)c1ccc2ncc(C(=O)OCCn3ccnc3)c(Nc3ccc(F)cc3)c2c1` [Example 13, 4-(4-Fluoro-phenylamino)-6-methylcarbamoyl-quinoline-3-carboxylic acid 2-imidazol-1-yl-ethylester], for which, in experiment [1], the minimal effective concentration stood at 50 µM. Further, the “Cell Shape: PAE/VEGFR-2 with VEGF antagonist conc. (μM) that gives inhibition” value in experiment [2] was “No effect”. Besides, in experiment [3], the inhibition at 10 µM was 27%. Also, the “Chemotaxis: VEGFR-2 inhibition of cell migration (%) at 10 μM compound concentration” value in experiment [4] is “No effect”.
Turning to `CNC(=O)c1ccc2ncc(C(=O)OCn3ccnc3)c(Nc3ccc(F)cc3)c2c1` [Example 14, 4-(4-Fluoro-phenylamino)-6-methylcarbamoyl-quinoline-3-carboxylic acid imidazol-1-yl-methylester], in experiment [1], the minimal effective concentration amounted to 50 µM. In addition, in experiment [2], the “Cell Shape: PAE/VEGFR-2 with VEGF antagonist conc. (μM) that gives inhibition” value is reported as “No effect”. Further, in experiment [3], the inhibition at 10 µM was found to be 30%. Besides, the “Chemotaxis: VEGFR-2 inhibition of cell migration (%) at 10 μM compound concentration” value in experiment [4] is given as “No effect”.
On to `CNC(=O)c1ccc2ncc(C(=O)OCCN3CCOCC3)c(Nc3ccc(F)cc3)c2c1` [Example 15, 2-Morpholinoethyl 4-[(4-fluorophenyl)amino]-6-(methylcarbamoyl)quinoline-3-carboxylate], for which the minimal effective concentration in experiment [1] turned out to be 100 µM. Moreover, the “Cell Shape: PAE/VEGFR-2 with VEGF antagonist conc. (μM) that gives inhibition” value in experiment [2] is given as “No effect”. In addition, the inhibition at 10 µM in experiment [3] was determined as 59%; in experiment [4], 31%.

The values are drawn from US20120065199A1, “SUBSTITUTED QUINOLINES FOR USE AS VEGF INHIBITORS” (CLANOTECH AB, priority 2009, published 2012).
